Results as given in US20240292835A1, “Methods, Compositions and Devices for Insect Control” (Agriculture Victoria Services PTY LTD, priority 2020, published 2024).

What was measured:
Format in all cases: in vivo, Carpophilus truncatus
[1] = tested on: C. truncatus male and female adult beetles; test: Y-tube olfactometer bioassays with isolated pheromone fractions; settings: 20 μl isolated fraction vs hexane control, diet odour in both arms
Experimental: Beetle orientation to different test odours was tested in a Y-tube glass olfactometer (ID: 2 cm, 10 cm stem and 7.5 cm choice arm length, 70° angle between arms) placed on a thick white paper sheet. All the experiments were conducted in a Controlled Environment Room at 28° C. The olfactometer was placed at a 30° angle to take advantage of beetles' natural negative geotaxis. Both arms of the Y-tube were connected via glass connectors or PTFE tubing to air-tight glass chambers in which different odours were applied. Activated charcoal-filtered air was circulated through the glass chambers entraining test odours to the choice arms of the Y-tube at 400 mL/min. The olfactometer was illuminated from above by dimmable fluorescent light tubes (Fititron, Weiss Gallenkamp, UK) covered by a sheet of UV-permitting diffusing white screen paper (Rosco 216, Germany). Light intensity at both ends of the two choice arms was measured and adjusted to 990 lux using a digital lux meter. Beetles were released individually in the olfactometer's main stem and observed for 10 min. Individuals that crossed the middle of either test arms (4 cm inside the arm; empirically designated as a non-return point) were considered to have made a choice. […] Preferences for male or female odours were assessed in a similar way by testing the beetle's orientation when simultaneous exposed to male and female beetle-infested diet. […]

[2] = tested on: C. truncatus antennae; test: GC-EAD (gas chromatography coupled with electroantennography) screening of odour and pheromone septa extracts; settings: for EAD: compounds in solvent extracts of commercial pheromone septa, key not given, antennae responded to all but one
Experimental: Pheromone compounds and other biologically active compounds present in odour extracts were screened by Gas Chromatography coupled with electroantennography (GC-EAD). The same GC setup used for chemical analysis was used in conjunction with an electroantennograph (Ockenfels Syntech GmbH, Germany). An apolar column SLB-5 MS (30 m×0.32 mm×0.25 μm) used as analytical column was connected to a CFT splitter plate (Capillary Flow Technology, Agilent). A constant flow of helium (1 mL/min) used as carrier and make-up gas was maintained towards the mass spectrometer. […] The EAD restrictor was fitted in a 50 cm transfer line (Ockenfels Syntech GmbH, Germany) heated at 250° C. allowing only the last 2 mm segment of the restrictor to protrude inside a glass mixing tube (3.8 mm inner diameter) positioned above the insect preparation and in which a 29 cm/s stream of purified air was applied. The described setup allowed relatively well-synced signals between all three detectors. One-week-old beetles were anesthetized on ice and immobilised in a micropipette tip with a cotton plug, with the upper part of the abdomen exposed. A sharp glass electrode filled with an electrolyte (0.1 N KCl, 3% PVP) was inserted into the head of the beetle (reference) while a similar electrode was positioned on the disc-shaped distal end of the antenna using a micromanipulator (FIG. 1). The antennal signal was amplified and recorded using an IDAC-4 (Ockenfels Syntech, Germany). When a good contact was obtained (checked via a 1% isopentyl acetate “puff” stimulation), an aliquot of volatile extract was injected in the GC and the sensitivity or lack thereof to individual compounds was determined by the overlay of MS/FID and EAD signals. Beetle odour extracts as well as extracts from commercial synthetic Carpophilus pheromones were screened by coupled gas chromatography-electroantennographic detection (GC-EAD) to test for beetle sensitivity to the putative pheromone and those of other Carpophilus species (FIG. 9).

[3] = tested on: C. truncatus; test: Laboratory dual-choice cage bioassays of co-attractant solutions; settings: Experiment #2: solution lacking one component vs full commercial co-attractant (CL)
Experimental: Cage bioassays were developed for the rapid screening of beetle attraction to prototype co-attractant solutions. Adult beetles were separated in groups of hundred individuals (mixed sex) and starved for 48 h in (30 cm×30 cm×30 cm) mesh cages in Controlled Environment rooms (29° C., 60% RH, 16L:8D Photoperiod). Two plastic traps made from 30 mL plastic cups comprising four 5-mm holes equidistantly distributed along their circumference and a single hole in the lid were filled with 20 mL of freshly prepared test co-attractant solutions (FIG. 2) and placed inside the mesh cage approximately 15-20 cm apart. Beetles were allowed 48 h to choose between the two solutions. At the end of the experiments, traps were collected in plastic containers and beetles inside each treatment cups (alive or drowned) as well as non-selecting individuals were counted. Experiments were replicated a minimum of ten times for each prototype solution. An attraction index, used to determine the degree of attraction or deterrence of the test solution in comparison to the control, was calculated as follows: (n beetles in test solution)−(n beetles in control)/total n beetles. Attraction indices returned values ranging between −1 (extreme repellence) and +1 (extreme attraction); 0 corresponding to the absence of preference for either solutions. Deviation of the indices from zero was analysed using two tailed t-tests. Cage bioassays were used to test the attraction of C. truncatus to the commercial co-attractant (co-attractant vs water) and to screen the influence of individual constituents of the commercial Carpophilus co-attractant on C. truncatus attraction. The effect of different constituents was assessed by testing the co-attractant (control) against test co-attractant solutions in which one constituent was excluded.
In a first cage experiment (Experiment #1, table 4), the attraction of C. truncatus attraction to the commercial co-attractant (CL) was verified using water as a control treatment (FIG. 14).
In a second experiment (Experiment #2, table 4), the influence of individual components of the commercial co-attractant on C. truncatus was assessed by testing beetle's preferences between test co-attractant solutions in which a single compound was missing against the full formulation.

[4] = tested on: C. truncatus; test: Field trials in almond orchards, black funnel traps; settings: field trial #3a; simplified co-attractant; FIG. 19
Experimental: All field trials were conducted in commercial almond orchards located in Mildura area (Victoria, Australia) between 2018 and 2020. Treatments were tested in black funnel traps (supplied by Bugs for Bugs; https://bugsforbugs.com.au/product/Carpophilus-[…]/) placed at ground level and secured using metal fence […] deeply anchored in the soil (FIG. 3). This differs from the conventional use of these traps in stone fruits where traps are suspended on […] 1.5 m height and derives from pilot experiments showing that more C. truncatus are caught when traps are placed on the ground (FIG. 5). An insecticidal strip (dichlorovos) was placed inside the traps to kill captured beetles. […] Beetles responses to different odours in Y-tube olfactometer experiments were analysed using binomial tests, assuming a distribution ratio of 1:1 between the two choice arms as the null-hypothesis. […] The deviation from zero of the attraction indices calculated in cage bioassays was analysed using paired t-tests. Field trial data were analysed as the mean weekly catches per trap over the period of the trials (between 2-6 weeks depending on beetle population density) using generalized linear mixed model fitted with a negative binomial distribution. […]

Row | Compound | EAD [2] | effect of individual component of commercial co-attractant on C. truncatus [3] | other results
1 | C/C=C(C)/C=C(C)/C=C(C)/C=C/CC [Pheromone 2, (2E,4E,6E,8E)-3,5,7-trimethyl-2,4,6,8-undecatetraene] | ✓ |  | attraction in Y-tube olfactometer [1]: comparable level of attraction; GC-EAD responses of C. truncatus males and females ([2]; beetle odour extracts): strong and consistent GC-EAD responses
2 | CC=O [acetaldehyde] |  | deterrent effect | 
3 | C/C=C(C)/C=C(/C=C/CC)CC [(2E,4E,6E)-5-ethyl-3-methyl-2,4,6-nonatriene] | ✓ |  | 
4 | CC(C)CO [isobutyl alcohol] |  | no observable effect | 
5 | CCOC(C)=O [ethyl acetate] |  | deterrent effect | 
6 | CCO [ethanol] |  | main attractants | 
7 | CCC(C)CO (stereo not shown) [2-methylbutanol] |  | deterrent effect | 
8 | CC/C=C/C(=C/C(C)=C/CC)CC [(3E,5E,7E)-6-ethyl-4-methyl-3,5,7-decatriene] | ✓ |  | 
9 | CC(C)CCO [isopentyl alcohol] |  | main attractants | C. truncatus attraction at higher concentrations of isopentyl alcohol [4]: significantly increase
10 | C/C=C(C)/C=C(C)/C=C(/C=C/CC)CC [(2E,4E,6E,8E)-7-ethyl-3,5-dimethyl-2,4,6,8-undecatetraene] | ✓ |  | 
11 | C/C=C/C(C)=C/C(C)=C/C(C)=C/C [(2E,4E,6E,8E)-3,5,7-Trimethyl-2,4,6,8-decatetraene] | ✓ |  | 
12 | C/C=C/C(=C/C(C)=C/C(C)=C/C)CC [Pheromone 1, (2E,4E,6E,8E)-7-Ethyl-3,5-dimethyl-2,4,6,8-decatetraene] | ✓ |  | attraction in Y-tube olfactometer [1]: more attractive than pheromone 2
